# Laboratory results from ChEMBL document CHEMBL4665642, “Anticancer profile of newly synthesized BRAF inhibitors possess 5-(pyrimidin-4-yl)imidazo[2,1-b]thiazole scaffold” (Bioorg Med Chem, 2019).
# Tests used:
# [1] = test system: HCT-29; experiment: Cytotoxicity against human […] cells assessed as cell viability at 10 uM incubated for 48 hrs by sulforhodamine B assay relative to control; type: functional; conditions: read-out: Activity
# [2] = test system: 786-0; experiment: Cytotoxicity against human 786-0 cells assessed as cell viability at 10 uM incubated for 48 hrs by sulforhodamine B assay relative to control; type: functional; conditions: read-out: Activity
# [3] = test system: UACC-62; experiment: Cytotoxicity against human UACC-62 cells assessed as cell viability at 10 uM incubated for 48 hrs by sulforhodamine B assay relative to control; type: functional; conditions: read-out: Activity
# [4] = test system: KM12; experiment: Cytotoxicity against human KM12 cells assessed as cell viability at 10 uM incubated for 48 hrs by sulforhodamine B assay relative to control; type: functional; conditions: read-out: Activity
# [5] = test system: OVCAR-3; experiment: Cytotoxicity against human OVCAR-3 cells assessed as cell viability at 10 uM incubated for 48 hrs by sulforhodamine B assay relative to control; type: functional; conditions: read-out: Activity
# [6] = test system: CCRF-CEM; experiment: Cytotoxicity against human CCRF-CEM cells assessed as cell viability at 10 uM incubated for 48 hrs by sulforhodamine B assay relative to control; type: functional; conditions: read-out: Activity
# [7] = test system: K562; experiment: Cytotoxicity against human K562 cells assessed as cell viability at 10 uM incubated for 48 hrs by sulforhodamine B assay relative to control; type: functional; conditions: read-out: Activity
# [8] = test system: ACHN; experiment: Cytotoxicity against human ACHN cells assessed as cell viability at 10 uM incubated for 48 hrs by sulforhodamine B assay relative to control; type: functional; conditions: read-out: Activity
# [9] = test system: SK-OV-3; experiment: Cytotoxicity against human SK-OV-3 cells assessed as cell viability at 10 uM incubated for 48 hrs by sulforhodamine B assay relative to control; type: functional; conditions: read-out: Activity
# [10] = test system: NCI-H460; experiment: Cytotoxicity against human NCI-H460 cells assessed as cell viability at 10 uM incubated for 48 hrs by sulforhodamine B assay relative to control; type: functional; conditions: read-out: Activity
# [11] = test system: HL-60(TB); experiment: Cytotoxicity against human HL-60(TB) cells assessed as cell viability at 10 uM incubated for 48 hrs by sulforhodamine B assay relative to control; type: functional; conditions: read-out: Activity
# [12] = test system: COLO 205; experiment: Cytotoxicity against human COLO 205 cells assessed as cell viability at 10 uM incubated for 48 hrs by sulforhodamine B assay relative to control; type: functional; conditions: read-out: Activity
# [13] = test system: OVCAR-4; experiment: Cytotoxicity against human OVCAR-4 cells assessed as cell viability at 10 uM incubated for 48 hrs by sulforhodamine B assay relative to control; type: functional; conditions: read-out: Activity
# [14] = test system: MDA-MB-468; experiment: Cytotoxicity against human MDA-MB-468 cells assessed as cell viability at 10 uM incubated for 48 hrs by sulforhodamine B assay relative to control; type: functional; conditions: read-out: Activity
# [15] = test system: MOLT-4; experiment: Cytotoxicity against human MOLT-4 cells assessed as cell viability at 10 uM incubated for 48 hrs by sulforhodamine B assay relative to control; type: functional; conditions: read-out: Activity
# [16] = test system: T47D; experiment: Cytotoxicity against human T47D cells assessed as cell viability at 10 uM incubated for 48 hrs by sulforhodamine B assay relative to control; type: functional; conditions: read-out: Activity
# [17] = test system: SK-MEL-28; experiment: Cytotoxicity against human SK-MEL-28 cells assessed as cell viability at 10 uM incubated for 48 hrs by sulforhodamine B assay relative to control; type: functional; conditions: read-out: Activity
# [18] = test system: SN12C; experiment: Cytotoxicity against human SN12C cells assessed as cell viability at 10 uM incubated for 48 hrs by sulforhodamine B assay relative to control; type: functional; conditions: read-out: Activity
# [19] = test system: SK-MEL-28; experiment: Cytotoxicity against human SK-MEL-28 cells assessed as reduction in cell viability by MTT assay; type: functional, cell-based
# [20] = test system: A-375; experiment: Cytotoxicity against human A-375 cells assessed as reduction in cell viability by MTT assay; type: functional, cell-based
Structure (SMILES),viability at 10 µM [1],viability at 10 µM [2],viability at 10 µM [3],viability at 10 µM [4],viability at 10 µM [5],viability at 10 µM [6],viability at 10 µM [7],viability at 10 µM [8],viability at 10 µM [9],viability at 10 µM [10],viability at 10 µM [11],viability at 10 µM [12],viability at 10 µM [13],viability at 10 µM [14],viability at 10 µM [15],viability at 10 µM [16],viability at 10 µM [17],viability at 10 µM [18],IC50 [19],IC50 [20]
O=S(=O)(NCCNc1nccc(-c2c(-c3cccc(F)c3)nc3sccn23)n1)c1cccc2ccccc12,83.2%,95.4%,91.8%,85%,103%,93.9%,78.3%,80.1%,98.5%,97.7%,116%,85%,105%,86.1%,73.7%,81.7%,123%,97.1%,,
O=S(=O)(NCCCNc1nccc(-c2c(-c3cccc(F)c3)nc3sccn23)n1)c1cccc2ccccc12,1.97%,52.9%,24.3%,26%,68.7%,38.5%,15.2%,34.7%,65.8%,19.9%,53.9%,21.5%,40.1%,59.3%,29.3%,18.4%,77.5%,46.9%,,
O=S(=O)(NCCCNc1nccc(-c2c(-c3cccc(F)c3)nc3sccn23)n1)c1cccc(F)c1,30.6%,66.3%,6.36%,29.9%,50.7%,24.7%,20.1%,42.5%,66%,58.3%,40.5%,23.4%,26.8%,33%,9.94%,-2.25%,68.3%,56.3%,8.55 µM,13.7 µM
O=C(NCCCNc1nccc(-c2c(-c3cccc(F)c3)nc3sccn23)n1)c1ccc(C(F)(F)F)cc1,53.8%,58.9%,69.6%,85.4%,82.3%,89.1%,66.7%,64.5%,69%,92.1%,115%,74.8%,74.7%,76.6%,44.8%,62.6%,96.2%,80.1%,,
O=C(NCCCNc1nccc(-c2c(-c3cccc(F)c3)nc3sccn23)n1)C1CCCCC1,40.1%,62.1%,36.4%,84.5%,82.1%,73.2%,65.4%,45.3%,87.7%,60%,111%,49.8%,85.9%,74.3%,69.5%,37.8%,84.5%,67.3%,,
O=C(NCCCNc1nccc(-c2c(-c3cccc(F)c3)nc3sccn23)n1)c1ccc(F)cc1,60.8%,62.5%,67.8%,89%,74.1%,75.9%,75.7%,74.9%,66.3%,95.2%,110%,64.7%,81.6%,59.2%,44.5%,50.6%,106%,75.8%,> 20 µM,14.9 µM
